Reference: patent US11603349B2, “Anti-fibrotic compounds” (Certa Therapeutics Pty Ltd, priority 2017, dated 2023)
Where a name gives a salt, the structure may show the parent alone.

Experiments:
[1] = test system: TGF-β induced [14C]-proline incorporation in rat mesangial cells; assay: [14C]-proline incorporation assay (collagen biosynthesis); format: cell-based; details: inhibition of TGF-β1 (1 ng/ml) induced [14C]-proline incorporation, IRMC cells
[2] = MTS tetrazolium reduction cell viability assay; details: rat, rat mesangial cells (1097/IRMC cells), TGF-β1 stimulated, CC50 (μM), vs 1% DMSO vehicle
[3] = Rattus norvegicus, Mesangial cell, 44 h

Compound	IC50 [1, 3] [µM]	CC50 at 48 h [2] [µM]	IC50 ([1]; 44 hours) [µM]
C#CCOc1ccc(/C=C/C(=O)Nc2ccccc2C(=O)O)c(OC2CCNC2)c1OC (stereo not drawn) [Example 80, 2-[[(E)-3-(3-methoxy-4-prop-2-ynoxy-2-pyrrolidin-3-yloxyphenyl)prop-2-enoyl]amino]benzoic acid]	24.5	> 100	–
COc1ccc(/C=C/C(=O)Nc2ccccc2C(=O)O)cc1OCc1cnn(C)c1 [Example 66, (E)-2-(3-(4-methoxy-3-((1-methyl-1H-pyrazol-4-yl)methoxy)phenyl)acrylamido)benzoic acid]	17	> 300	–
C#CCOc1ccc(/C=C/C(=O)Nc2ccccc2C(=O)NCc2cccnc2)cc1OC [Example 43, (E)-2-(3-(3-methoxy-4-(prop-2-yn-1-yloxy)phenyl)acrylamido)-N-(pyridin-3-ylmethyl)benzamide]	44.6	> 300	–
COc1c(OCC2CC2)ccc(/C=C/C(=O)Nc2ccccc2C(=O)O)c1OCCN(C)C [Example 90, 2-[[(E)-3-[4-(cyclopropylmethoxy)-2-[2-(dimethylamino)ethoxy]-3-methoxy-phenyl]prop-2-enoyl]amino]benzoic acid]	21.9	> 300	–
C#CCOc1ccc(/C=C/C(=O)Nc2ccccc2C(=O)O)cc1OC [FT011, (E)-2-(3-(3-methoxy-4-(prop-2-yn-1-yloxy)phenyl)acrylamido)benzoic acid, reference compound]	17	119	16
C#CCOc1ccc(C2CC2C(=O)Nc2ccc(C#N)cc2)cc1OC (stereo not drawn) [Example 135, N-(4-cyanophenyl)-2-(3-methoxy-4-(prop-2-yn-1-yloxy)phenyl)cyclopropanecarboxamide]	45.3	> 300	–
CCc1ccc(/C=C/C(=O)Nc2ccccc2C(=O)O)cc1OC [Example 100, (E)-2-(3-(4-ethyl-3-methoxyphenyl)acrylamido)benzoic Acid]	9.29	37	–
C#CCOc1ccc(/C=C/C(=O)Nc2ccccc2C(=O)NC2COC2)cc1OC [Example 38, (E)-2-(3-(3-methoxy-4-(prop-2-yn-1-yloxy)phenyl)acrylamido)-N-(oxetan-3-yl)benzamide]	38.2	236	–
C#CCOc1ccc(/C=C/C(=O)Nc2ccccc2C(=O)Nc2ccn(C)n2)cc1OC [Example 48, (E)-2-(3-(3-methoxy-4-(prop-2-yn-1-yloxy)phenyl)acrylamido)-N-(1-methyl-1H-pyrazol-3-yl)benzamide]	23.9	309	–
COc1cccc(/C=C/C(=O)Nc2cccc(C#N)c2)c1OCCN(C)C [Example 91, (E)-N-(3-cyanophenyl)-3-(2-(2-(dimethylamino)ethoxy)-3-methoxyphenyl)acrylamide]	8.38	18.1	–
C#CCOc1ccc(/C=C/C(=O)Nc2ccccc2C#N)c(OC2CCN(C)C2)c1OC (stereo not drawn) [Example 81, (E)-N-(2-cyanophenyl)-3-[3-methoxy-2-(1-methylpyrrolidin-3-yl)oxy-4-prop-2-ynoxy-phenyl]prop-2-enamide]	7.15	24.9	–
COc1cc(/C=C/C(=O)Nc2ccc(Cl)cc2)ccc1OCC1COC1 [Example 153, (E)-N-(4-chlorophenyl)-3-(3-methoxy-4-(oxetan-3-ylmethoxy)phenyl)acrylamide]	35.4	> 300	–
C#CCOc1ccc(/C=C/C(=O)Nc2ccccc2C(=O)NCC2CCOC2)cc1OC (stereo not drawn) [Example 39, (E)-2-(3-(3-methoxy-4-(prop-2-yn-1-yloxy)phenyl)acrylamido)-N-((tetrahydrofuran-3-yl)methyl)benzamide]	48.3	85.8	–
C#CCOc1ccc(/C=C/C(=O)Nc2ccccc2-c2nnc(C)o2)cc1OC [Example 29, (E)-3-(3-methoxy-4-(prop-2-yn-1-yloxy)phenyl)-N-(2-(5-methyl-1,3,4-oxadiazol-2-yl)phenyl)-acrylamide]	25.6	> 300	–
C#CCOc1ccc(/C=C/C(=O)N2CCOc3ccccc32)cc1CC [Example 113, (E)-1-(2H-benzo[b][1,4]oxazin-4(3H)-yl)-3-(3-ethyl-4-(prop-2-yn-1-yloxy)phenyl)prop-2-en-1-one]	7.75	32.6	–
C#CCOc1ccc(/C=C/C(=O)N2CCNc3ccccc32)cc1OC [Example 11, (E)-1-(3,4-dihydroquinoxalin-1(2H)-yl)-3-(3-methoxy-4-(prop-2-yn-1-yloxy)phenyl)prop-2-en-1-one]	7.07	104	–
C#CCOc1ccc(C2CC2C(=O)N2CCOc3ccccc32)cc1OC (stereo not drawn) [Example 119, (2H-benzo[b][1,4]oxazin-4(3H)-yl)(2-(3-methoxy-4-(prop-2-yn-1-yloxy)phenyl)cyclopropyl) methanone]	24.7	74.8	–

Compound	IC50 [1, 3] [µM]	CC50 at 48 h [2] [µM]	IC50 ([1]; 44 hours) [µM]
C#CCOc1ccc(/C=C/C(=O)Nc2ccccc2C#N)c(OCCCN(C)C)c1OC [Example 87, (E)-N-(2-cyanophenyl)-3-[2-[3-(dimethylamino)propoxy]-3-methoxy-4-prop-2-ynoxy-phenyl]prop-2-enamide]	3.69	12.1	–
COc1cc(C2CC2C(=O)Nc2ccc(F)cc2)ccc1OC1CCN(C)C1 (stereo not drawn) [Example 136, N-(4-fluorophenyl)-2-(3-methoxy-4-((1-methylpyrrolidin-3-yl)oxy)phenyl)cyclopropane-1-carboxamide]	4.13	16.3	–
C#CCOc1ccc(/C=C/C(=O)Nc2ccccc2C)cc1OC [Example 5, (E)-3-(3-methoxy-4-(prop-2-yn-1-yloxy)phenyl)-N-(o-tolyl)acrylamide]	10.6	369	–
C#CCOc1ccc(/C=C/C(=O)Nc2ccccc2-n2cnc(C)n2)cc1OC [Example 23, (E)-3-(3-methoxy-4-(prop-2-yn-1-yloxy)phenyl)-N-(2-(3-methyl-1H-1,2,4-triazol-1-yl)phenyl)acryl-amide]	26.3	104	–
C#CCOc1ccc(/C=C/C(=O)N2CCOc3ccccc32)cc1OC [Example 12, (E)-1-(2,3-dihydro-4H-benzo[b][1,4]oxazin-4-yl)-3-(3-methoxy-4-(prop-2-yn-1-yloxy)phenyl)prop-2-en-1-one]	10.2	335	–
C#CCOc1ccc(C2CC2C(=O)Nc2ccc(F)cc2)cc1OC (stereo not drawn) [Example 133, N-(4-fluorophenyl)-2-(3-methoxy-4-(prop-2-yn-1-yloxy)phenyl)cyclopropanecarboxamide]	23.4	> 300	–
CCc1cc(/C=C/C(=O)Nc2ccccc2C(=O)O)ccc1OC [Example 105, (E)-2-(3-(3-ethyl-4-methoxyphenyl)acrylamido)benzoic acid]	8.44	79.7	–
COc1cc(/C=C/C(=O)Nc2ccc(C#N)cc2)ccc1OC1CCN(C)C1 (stereo not drawn) [Example 131, (E)-N-(4-cyanophenyl)-3-(3-methoxy-4-((1-methylpyrrolidin-3-yl)oxy)phenyl)acrylamide trifluoroacetic acid salt]	21.6	17.7	–
C#CCOc1ccc(/C=C/C(=O)Nc2ccccc2-c2cn(C)cn2)cc1OC [Example 26, (E)-3-(3-methoxy-4-(prop-2-yn-1-yloxy)phenyl)-N-(2-(1-methyl-1H-imidazol-4-yl)phenyl)acrylamide]	13.5	190	–
C#CCOc1ccc(/C=C/C(=O)Nc2ccccc2C(=O)NCCN2CCN(C)CC2)cc1OC [Example 34, (E)-2-(3-(3-methoxy-4-(prop-2-yn-1-yloxy)phenyl)acrylamido)-N-(2-(4-methylpiperazin-1-yl)ethyl)benzamide]	28.4	37.3	–
COc1ccc(/C=C/C(=O)Nc2ccccc2C(=O)O)cc1N1CCOCC1 [Example 101, (E)-2-(3-(4-methoxy-3-morpholinophenyl)acrylamido)benzoic Acid]	17	119	–
C#CCOc1ccc(/C=C/C(=O)Nc2ccccc2C#N)c(OCCN2CCOCC2)c1OC [Example 85, (E)-N-(2-cyanophenyl)-3-[3-methoxy-2-(2-morpholinoethoxy)-4-prop-2-ynoxy-phenyl]prop-2-enamide]	8.92	109	–
COc1ccc(C2CC2C(=O)Nc2cccc(S(C)(=O)=O)c2)cc1OCc1cnn(C)c1 (stereo not drawn) [Example 158, 2-(4-methoxy-3-((1-methyl-1H-pyrazol-4-yl)methoxy)phenyl)-N-(3-(methylsulfonyl)phenyl)cyclopropane-1-carboxamide]	25.9	68.8	–
C#CCOc1ccc(/C=C/C(=O)Nc2ccccc2C(=O)NCCN(C)C)cc1OC [Example 30, (E)-N-(2-(dimethylamino)ethyl)-2-(3-(3-methoxy-4-(prop-2-yn 1 yloxy)phenyl)acrylamido) benzamide]	11.8	37.2	–
C#CCOc1ccc(/C=C/C(=O)Nc2ccccc2C#N)c(OC2CN(C)C2)c1OC [Example 79, (E)-N-(2-cyanophenyl)-3-[3-methoxy-2-(1-methylazetidin-3-yl)oxy-4-prop-2-ynoxy-phenyl]prop-2-enamide]	9.52	23.4	–
COc1cc(C2CC2C(=O)Nc2ccccc2Cl)ccc1OCC1COC1 (stereo not drawn) [Example 155, N-(2-chlorophenyl)-2-(3-methoxy-4-(oxetan-3-ylmethoxy)phenyl)cyclopropane-1-carboxamide]	18.7	196	–
COc1cc(/C=C/C(=O)Nc2ccccc2C(=O)O)ccc1OCC1COC1 [Example 54, (E)-2-(3-(3-methoxy-4-(oxetan-3-ylmethoxy)phenyl)acrylamido)benzoic acid]	24	> 300	–
